Results: US8415312B2, “Compound which is a nystatin derivative” (Biosergen AS, priority 2007, dated 2013)
In brackets after ≈: the same amount, converted by molar mass. Several values for one entry are separate records, joined by “and”; a condition that tells them apart may be missing. Equal values may be shown once.

Experiments:
[1] = system: Cryptococcus humicolus ATCC 9949; experiment: Antifungal susceptibility study (1), broth microdilution MIC; type: cell-based; conditions: lowest concentration preventing any visible growth, read at 48 hours, 25° C., RPMI 1640 pH 7.0
Method: (§1) ACROS ORGANICS, New Jersey, USA), pH 7.0, was used in study. […] Then these DMSO solutions were diluted 50-fold (first 10-fold and then 5-fold) in the test medium. […] The solutions were prepared just before using. The organisms used for susceptibility testing were: Candida albicans ATCC 14053, Cryptococcus humicolus ATCC 9949, Aspergillus niger ATCC 16404 and Fusarium oxysporum VKM F-140 (=CMI, IMI 90473). Organisms were stored on potato dextrose agar […] 50% glycerol solution at -70° C. For short-term storage, stock cultures were stored on agar […] 4° C. The cultures of yeasts were sub-cultured onto Sabouraud dextrose (SAB) agar and incubated for 24 hours at 35° C. (Candida albicans) or for 48 hours at 25° C. (Cryptococcus humicolus) to obtain a freshly grown pure culture. The cultures of moulds were sub-cultured onto potato dextrose agar and incubated for 7 days at 35° C. […] (Fusarium oxysporum) to ensure maximum sporulation. […] Inoculum quantitation was performed by plating dilution of the inoculum on Sabouraud dextrose agar to determine the viable number of CFU per milliliter. Sterile 96-well flat-bottomed microtitration plates were used for testing. 100 μl of diluted inocula were dispensed into each microdilution well containing 100 μl of the double dilutions of compounds. Drug-free and yeast/mould-free controls were included. Microdilution trays were incubated at 35° C. (Candida albicans and moulds) or 25° C. (Cryptococcus humicolus) without agitation and observed for the presence or absence of visible growth. […] Minimal inhibitory concentrations (MICs) were read at 48 hours.

[2] = system: Candida albicans ATCC 14053; experiment: as above; type: cell-based; conditions: lowest concentration preventing any visible growth, read at 48 hours, 35° C., RPMI 1640 pH 7.0
Method: as §1

[3] = system: Fusarium oxysporum VKM F-140; experiment: as above; type: cell-based; conditions: lowest concentration preventing any visible growth, read at 48 hours, 35° C., RPMI 1640 pH 7.0
Method: (§2) ACROS ORGANICS, New Jersey, USA), pH 7.0, was used in study. […] Then these DMSO solutions were diluted 50-fold (first 10-fold and then 5-fold) in the test medium. […] The solutions were prepared just before using. The organisms used for susceptibility testing were: Candida albicans ATCC 14053, Cryptococcus humicolus ATCC 9949, Aspergillus niger ATCC 16404 and Fusarium oxysporum VKM F-140 (=CMI, IMI 90473). Organisms were stored on potato dextrose agar […] 50% glycerol solution at -70° C. For short-term storage, stock cultures were stored on agar […] 4° C. The cultures of yeasts were sub-cultured onto Sabouraud dextrose (SAB) agar and incubated for 24 hours at 35° C. (Candida albicans) or for 48 hours at 25° C. (Cryptococcus humicolus) to obtain a freshly grown pure culture. The cultures of moulds were sub-cultured onto potato dextrose agar and incubated for 7 days at 35° C. […] (Fusarium oxysporum) to ensure maximum sporulation. […] Finally, the suspensions were vortexed for 15 s to break up clumps of cells and then filtered through four layers of sterile gauze. The densities of conidial spore suspensions was measured at 530 nm and adjusted to 0.09-0.11 for Aspergillus niger and 0.15-0.17 for Fusarium oxysporum. These suspensions were diluted 1:50 with the standard medium. […] Inoculum quantitation was performed by plating dilution of the inoculum on Sabouraud dextrose agar to determine the viable number of CFU per milliliter. Sterile 96-well flat-bottomed microtitration plates were used for testing. 100 μl of diluted inocula were dispensed into each microdilution well containing 100 μl of the double dilutions of compounds. Drug-free and yeast/mould-free controls were included. Microdilution trays were incubated at 35° C. (Candida albicans and moulds) or 25° C. (Cryptococcus humicolus) without agitation and observed for the presence or absence of visible growth. […] Minimal inhibitory concentrations (MICs) were read at 48 hours.

[4] = system: Aspergillus niger ATCC 16404; experiment: as above; type: cell-based; conditions: lowest concentration preventing any visible growth, read at 48 hours, 35° C., RPMI 1640 pH 7.0
Method: as §2

erythrocytes = experiment: In vitro toxicity study, haemolysis (Tables 11 and 12); type: cell-based, horse; conditions: for Haemolysis of erythrocytes, Mean ± S.E.M.: 25 μM (Table 12)
Method: The toxicity of various nystatin derivatives was tested at 2 and 5 μg/mL and at 25 μM.
Compounds were dissolved in DMSO at 5 mg/mL and 0.1 mL samples with different concentrations were prepared in DMSO. The samples were mixed with 0.9 mL PBS buffer containing 2.5% horse blood (PBS-HB; kept on ice) and incubated at 37° C. for 30 min without agitation.
Cells were pelleted by centrifugation at 5000 rpm for 5 min and haemolysis was evaluated by measuring OD545. 100% haemolysis was defined as the OD545 value obtained from a suspension of 2.5% horse blood in distilled water.

[5] = system: mice (C57B1/6xDBA/2)F1 B6D2F1; conditions: single injection into tail vein, probit analysis
Method: Male mice of hybrids of first generation (C57B1/6xDBA/2)F1 B6D2F1, weight 20-22 g., received from the Central farm. “Kryukovo” of Russian Academies of Medical Science (RAMS) were used. Animals were maintained in a vivarium in plastic cages (with hardwood bedding in environmentally controlled conditions: 24±1° C., 12/12 hours light/dark cycle) on a standard diet of bricketed forages with easy access to drinking water (ad libitum). After a 2-week quarantine period, healthy animals were used in experimental work.
The solutions were prepared as follows: dry antibiotic substances (5 mg) were mixed with dry sodium deoxycholate (4.1 mg) in a sterile glass vial. 10 mL of phosphate buffer (NaH2PO4—1.59 g; Na2HPO4—0.96 g; H2O—to 100 mL) was added to the mix and the suspension was immediately subjected to vigorous shaking for 10 minutes until homogeneous suspensions were formed.
Preparations of amphotericin B and S44HP were also prepared in the same way.
The antibiotic preparations were singly injected into the mice's tail vein within 1-1.5 hours after the preparation of solutions. […] Each antibiotic was used in a range of doses resulting in 0% to 100% lethality and a minimum of 3 intermediate doses. Animals were randomized into groups, each containing 6 mice.

[6] = system: Candida albicans (strain 14053 ATCC); experiment: Model of the candidiasis sepsis of mice, kidney burden; type: in vivo
Method: In experiments used female mice of hybrids of first generation (C57B1/6xDBA/2)F1 (B6D2F1), weight 18-20 g., received from the Central farm “Kryukovo” of Russian Academies of Medical Science (RAMS). Animals were maintained in Institute' vivarium in plastic cages (with hardwood bedding in environmentally controlled room: 24±1° C., 12/12 hours light/dark cycle) on a standard diet of bricketed forages with an easy approach to drinking water (ad libitum). After 2-week quarantine healthy animals were used in experimental work.
A preparation of comparison was amphotericin B (pure). Solutions of tested preparations prepared ex tempore by the technique specified by the customer.
Animals were housed on 3 mice and infected intravenously with culture Candida albicans in a doze 1.0 million CFU/mouse in volume of 0.1 ml. It is necessary to note, that doze Candida albicans remained a constant in all experiments. In 30 minutes after infection to mice carried out the first intravenous introduction of tested preparations in corresponding dozes in volume of 0.2 ml (with a speed of 0.2 ml/30 second).
Experiment has been planned in such a manner that in each experiment one doze (both for amphotericin B was used, and for tested preparations), each doze entered daily within four days, since day of infection (0, 1, 2 and 3 days). At each experiment there was a group untreated, infected with Candida albicans animals. Also there was a group “placebo”, intact (not infected) animals, which intravenously (in the same volume as medical preparations) injected 0.2 ml of solvent—phosphatic buffer +5% glucose (1:1).
On the post challenge 5th day of experiment, mice were weighed and euthanized (killed) by a cervical dislocation. Then, in sterile conditions, Candida albicans burdens were determined by viable counting of homogenates from the kidneys. The kidneys, which were removed aseptically and weighed, pounded in porcelain mortars with sterile corundum, did dilutions of the received suspensions and sowed on Petri dishes with agar Saburo, incubated for 48 hours at temperature 35° C., then counted up developed colonies Candida albicans and recalculated their quantity on 1 g of kidney' tissue. The first dilution was 10^−1. Zero result at this cultivation accepted for 5 CFU/g.
For the basic criterion of an assessment of the investigated preparations the maximal effect of the Amphotricin B was accepted (effective dose, ED).
For significant accepted distinctions of average at P≦0.05 at comparison by Student t-criterion.

[7] = 25 μM, individual blood samples (Table 12)
[8] = dose 0.16 mg/kg/d i.v. for four days, day 5, n=3 mice
[9] = dose 0.62 mg/kg/d i.v. for four days, day 5, n=3 mice
[10] = dose 2.5 mg/kg/d i.v. for four days, day 5, n=3 mice
[11] = dose 10 mg/kg/d i.v. for four days, day 5, n=3 mice, zero result accepted for 5 CFU/g

Compound | MIC Cryptococcus humicolus ATCC 9949 [1] [µg/mL] | MIC Candida albicans ATCC 14053 [2] [µg/mL] | MIC Fusarium oxysporum VKM F-140 [3] [µg/mL] | MIC Aspergillus niger ATCC 16404 [4] [µg/mL] | Haemolysis of erythrocytes, Mean ± S.E.M. (erythrocytes) [%] | Haemolysis of erythrocytes (erythrocytes; [7]) | LD50 [5] [mg/kg] | MTD [5] [mg/kg] | Candida albicans burden in kidneys (Mean) [6, 8] [CFU/g] | Candida albicans burden in kidneys (Mean) [6, 9] [CFU/g] | Candida albicans burden in kidneys (Mean) ([6]; dose 1.25 mg/kg/d i.v. for four days, day 5, n=3 mice) [CFU/g] | Candida albicans burden in kidneys (Mean) [6, 10] [CFU/g] | Candida albicans burden in kidneys (Mean) [6, 11] [CFU/g] | Haemolysis of erythrocytes, Mean ± SE (erythrocytes; 5 μg/mL (Table 11)) [%] | Haemolysis of erythrocytes (erythrocytes; 5 μg/mL, individual blood samples # 1-3 (Table 11)) | Candida albicans burden in kidneys (Mean) ([6]; in vivo, iv, 1.25 mg/kg/day) [CFU/g]
CNC(=O)C1C(O)CC2(O)CC(O)C(O)CCC(O)CC(O)CC(O)CC(=O)OC(C)C(C)C(O)C(C)C=CC=CC=CC=CC=CC=CC=CC(OC3OC(C)C(O)C(N)C3O)CC1O2 (stereo not drawn) [Compound 6] | 2 (≈ 2.13 µM) | 2 (≈ 2.13 µM) | 4 (≈ 4.27 µM) | 4 (≈ 4.27 µM) | 3.7 ± 0.6 | 3.7% and 4.3% and 3.2% and 2% and 2.4% and 3.3% and 7% |  |  |  |  |  |  |  |  |  | 
CC1C=CC=CC=CC=CC=CC=CC=CC(OC2OC(C)C(O)C(N)C2O)CC2OC(O)(CC(O)C(O)CCC(O)CC(O)CC(O)CC(=O)OC(C)C(C)C1O)CC(O)C2C(=O)NCCO (stereo not drawn) [Compound 5] | 4 (≈ 4.14 µM) | 2 (≈ 2.07 µM) | 4 (≈ 4.14 µM) | 4 (≈ 4.14 µM) | 1.6 ± 0.2 | 1% and 1.9% and 1.3% and 2% and 1.8% and 2.1% |  |  |  |  |  |  |  |  |  | 
CC1C=CC=CC=CC=CC=CC=CC=CC(OC2OC(C)C(O)C(NCC3(O)OCC(O)C(O)C3O)C2O)CC2OC(O)(CC(O)C(O)CCC(O)CC(O)CC(O)CC(=O)OC(C)C(C)C1O)CC(O)C2C(=O)O (single isomer, unassigned) [Compound 17] | 1 (≈ 0.921 µM) | 1 (≈ 0.921 µM) | 8 (≈ 7.36 µM) | 2 (≈ 1.84 µM) | 2.4 ± 0.6 | 1.7% (2×) and 2.1% and 0.8% and 3.3% and 4.8% |  |  |  |  |  |  |  |  |  | 
CC1O[C@@H](O[C@H]2/C=C/C=C/C=C/C=C/C=C/C=C/C=C/[C@H](C)[C@@H](O)[C@@H](C)[C@H](C)OC(=O)C[C@H](O)C[C@H](O)C[C@H](O)CC[C@@H](O)[C@H](O)C[C@]3(O)C[C@H](O)[C@@H](C(=O)NCCN(C)C)[C@H](C2)O3)[C@H](O)C(N)[C@@H]1O (stereo partly drawn) [Compound 48, N,N-dimethylaminoethyl (DMAE) S44HP Amide] | 0.5 (≈ 0.503 µM) | 0.5 (≈ 0.503 µM) | 1 (≈ 1.01 µM) | 1 (≈ 1.01 µM) |  |  | 32.2 | 25.9 | 51667 | 3233 | 1487 | 63 | 5 |  |  | 
CC1C=CC=CC=CC=CC=CC=CC=CC(OC2OC(C)C(O)C(N)C2O)CC2OC(O)(CC(O)C(O)CCC(O)CC(O)CC(O)CC(=O)OC(C)C(C)C1O)CC(O)C2C(N)=O (stereo not drawn) [Compound 7] | 1 (≈ 1.08 µM) | 2 (≈ 2.17 µM) | 8 (≈ 8.67 µM) | 2 (≈ 2.17 µM) | 1.5 ± 0.17 | 1.7% and 1.3% and 1.9% (3×) and 1.0% and 0.9% |  |  |  |  |  |  |  | 5.2 ± 0.2 | 5.8% and 5.0% (2×) | 
CC1O[C@@H](O[C@H]2/C=C/C=C/C=C/C=C/C=C/C=C/C=C/[C@H](C)[C@@H](O)[C@@H](C)[C@H](C)OC(=O)C[C@H](O)C[C@H](O)C[C@H](O)CC[C@@H](O)[C@H](O)C[C@]3(O)C[C@H](O)[C@@H](C(=O)NCCN(C)C)[C@H](C2)O3)[C@H](O)C(NCC2(O)OC[C@@H](O)[C@@H](O)[C@@H]2O)[C@@H]1O.Cl (stereo partly drawn) [Compound 41] | 1 | 0.5 | 2 | 1 |  |  | 38.6 | 21.2 | 67000 | 22667 |  | 1667 | 5 |  |  | 2767
